Data from patent EP0210351A2, “Use of porphyrin derivatives in the detection and treatment of tumours” (Nippon Petrochemicals Co., Ltd., priority 1985, dated 1987).

Columns and labels:
[1] = system: SmT-F transplanted tumors; experiment: Photodynamic therapy of transplanted mouse tumors, necrotic/affected area by Evans Blue dye (Example 8); format: in vivo, DBA/2 Ha Ros-d+Ha mice; settings: 100 mg/kg iv, 24 hrs between drug dose and light, 200 mW/cm^2, 300 J/cm^2, wavelength nm: 2-acetyl 680, 2-formyl 690, chlorin e6 665, deutero 655, meso 652, necrotic/affected tumor area
Procedure: The treatment and evaluation procedure is as follows: • DBA/2 Ha Ros-d+Ha mice with SmT-F transplanted tumors either in the exterior part of the hind leg or the side of the mouse were injected intravenously via the external jugular or intraperitoneally with the photosensitizing drug. At the specified time after injection, the area over the tumor was shaved and the light treatment begun.
Light from a Cooper Aurora argon pumped tunable dye laser was administered via a micro lens system (developed by Dr. Daniel Doiron, D,R.D. Consulting, Santa Barbara, California) coupled through a quartz fiber to the laser. The optical properties of the lens are such that the light exits the lens in a circular pattern with homogenous intensity throughout the lighted area, The diameter of the lighted area is a function of the distance from the lens,
The light intensity was measured with a Yellow Springs Instrument Model 65 A Radiometer at the point of treatment. A 1.5 cm diameter circle of the animal's skin, centered as closely as possible over the tumor, was irradiated in all the experiments. The intensity, wavelength, and dosage of light is included in the data for individual groups of animals. Wavelengths are adjusted, using a Hartridge reversion spectroscope to within 1 nm of the stated value.
Twenty four hours after light treatment, each mouse received 5 mg of Evans Blue Dye intravenously (1). After an additional two hours, the mice were sacrificed and the tumors were sectioned vertically through the center of the light treated area. Unaffected tumor was stained blue as was unaffected normal tissue. Necrotic or affected areas were white or red in appearance. Measurements on both the whole tumors and affected areas of the tumors were made vertically and horizontally with calipers to the nearest one half millimeter.

[2] = system: Morris Hepatoma 7777; experiment: Photodynamic therapy, depth of tumor necrosis by Evans Blue method (Example 6); format: in vivo, Buffalo rats; settings: Tumor 7777; 20 Joules/cm^2; drug dose 20 mg/kg intravenously; 24 hrs between drug and light; 665 nm; 100 mW/cm^2; n=3
Procedure: The phtotdynamic therapy experiments have been carried out on Buffalo rats, using the transplantable tumor, Morris Hepatoma 7777. The tumors were transplanted subcutaneously on the outside of the thigh. During treatment, the tumors ranged in size between 1 and 2.5 cm in diameter.
The general treatment regime is as follows. The rats are injected with a solution of the chlorin prepared as follows: 20mg of the sodium salt of the chlorin was dissolved in 1 ml of 0.9% NaCl. The chlorin solution was then injected intravenously through the external jugular while the rat was anesthetized with ether. The volume of solution injected was calculated based upon the weight of the animal and the dosage, on a weight to weight basis, for the particular experiment. […]
The lens disperses the laser beam, providing a circular distribution of light with homogenous light intensity throughout the area of the incident light beam. […] The light intensity was determined using a Yellow Springs Instrument, Model 65A, radiometer. […]
Subsequent to illumination, the animal was returned to its cage and, 24 hours later, it was treated intravenously in the external jugular vein with 14 mg of Evans Blue dye, dissolved in 250 ul of 0.9% NaCl. […] The extent of tumor necrosis was assessed by the lack of dye uptake, and the depth of the necrotic cross section of the tumor was recorded in millimeters. […]

[3] = system: Morris Hepatoma 7777 tumors; experiment: Photodynamic therapy, chlorin e6 compared with Photofrin II, tumor necrosis by Evans Blue dye (Example 7); format: in vivo, Buffalo rats; settings: 19 tumors treated; 20mg/kg intravenously; light 24 hours later; 665 nanometer; 100 mw/cm^2; 20 joules/cm^2
Procedure: Male Buffalo rats (approximately 200g each), with transplanted subcutaneous Morris Hepatoma 7777 tumors on the exterior portion of the hind legs were injected intravenously via the exterior jugular with chlorin-e6 or Photofrin II, ^(2) at a dosage of 20mg/kg. Twenty four hours later, the areas over the tumors were shaved and the light treatment was begun.
Light from a Cooper Aurora argon pumped tunable dye laser was administered via a micro lens system (developed by Dr. Daniel Doiron, D.R.D. Consulting, Santa Barbara, California) coupled through a quartz fiber to the laser. The optical properties of the lens are such that the light exits the lens in a circular pattern with a homogenous intensity throughout the lighted area. The diameter of the lighted area is a function of its distance from the lens.
The light intensity was measured with a Yellow Springs Instrument Model 65A Radiometer at the point of treatment. […] Photofrin II rats were treated with 630 nanometer light in accordance with the preponderance of photodynamic therapy experiments described in the literature, using this drug, and its forerunner HPD or Photofrin I. The wavelengths of light were determined with the aid of a Hartridge reversion spectroscope to within one nanometer. […]
Nineteen tumors were evaluated for Chlorin e6 and light effect while twenty two tumors were assessed for Photofrin II and light effect.

| SMILES | X̄ ± s.d. (cm) [1] [cm] | range cm [1] | Range mm: range of depth of necrosis within the group [2] | x̄ s.d.(n): mean depth of necrosis of the tumor tissue [2] | number of tumors developing necrosis following treatment [3] |
| --- | --- | --- | --- | --- | --- |
| CCC1=C(C)c2cc3[nH]c(cc4nc(c(CC(=O)O)c5[nH]c(cc1n2)c(C)c5C(=O)O)C(CCC(=O)O)C4C)c(C)c3C(C)=O (stereo not shown) [2-acetyl chlorin e6] | 0.04±0.08 | 0.00-0.15 cm | – | – | – |
| CCC1=C(C)c2cc3[nH]c(cc4nc(c(CC(=O)O)c5[nH]c(cc1n2)c(C)c5C(=O)O)C(CCC(=O)O)C4C)c(C)c3C=O (stereo not shown) [2-formyl chlorin e6, 2-Desvinyl-2-FormylChlorin e6] | 0.33±0.12 | 0.20-0.45 cm | – | – | – |
| C=Cc1c(C)c2cc3nc(c(CC(=O)O)c4[nH]c(cc5nc(cc1[nH]2)C(C)=C5CC)c(C)c4C(=O)O)[C@@H](CCC(=O)O)[C@@H]3C [Chlorin e6] | 0.26±0.05 | 0.20-0.35 cm | 3.5-5 mm | 4.5±0.9 (3) mm | 17 |
| CCC1=C(C)c2cc3cc(C)c(cc4nc(c(CC(=O)O)c5[nH]c(cc1n2)c(C)c5C(=O)O)C(CCC(=O)O)C4C)[nH]3 (stereo not shown) [deuterochlorin e6, Deuterochlorin e6] | 0.59±0.07 | 0.50-0.70 cm | – | – | – |
| CCC1=C(C)c2cc3[nH]c(cc4nc(c(CC(=O)O)c5[nH]c(cc1n2)c(C)c5C(=O)O)C(CCC(=O)O)C4C)c(C)c3CC (stereo not shown) [mesochlorin e6, Mesochlorin e6] | 0.06±0.08 | 0.00-0.15 cm | – | – | – |
